Assay results: PMC12071365, “Discovery of Boronic Acids-Based β-Lactamase Inhibitors Through In Situ Click Chemistry” (International Journal of Molecular Sciences, 2025)
Read-outs that look alike come from different tables or passages of the source.

How the values were obtained:
AmpC [1] = target: T1, AmpC (Escherichia coli, UniProt P00811); assay: Competitive inhibition assay with nitrocefin, Ki; type: biochemical; parameters: made in house
Method: (§1) The β-lactamases used in the present study were from a Clinical Biochemistry Laboratory collection (Department of Biotechnological and Applied Clinical Sciences, University of L’Aquila, L’Aquila, Italy). […] The concentration of each enzyme was determined by a Bradford assay.
(§2) The plot v0/vi versus [I] yielded a straight line of slope KM/(KM + S) × Ki.
Figure 9 Compounds synthesised and their biological evaluation. AC = Amplification coefficient. […] Light blue indicates the compounds from the AmpC screening.

KPC-2 [2] = target: T2, KPC-2 (Klebsiella pneumoniae, UniProt Q9F663); assay: Competitive inhibition assay with nitrocefin, Ki; type: biochemical; conditions: for improvement compared with the warhead activity: Ki vs KPC-2 relative to warhead 3 (Ki = 2.3 µM)
T2 construct: made in house
T2 sequence (Q9F663 25-293, looked up, species assumed): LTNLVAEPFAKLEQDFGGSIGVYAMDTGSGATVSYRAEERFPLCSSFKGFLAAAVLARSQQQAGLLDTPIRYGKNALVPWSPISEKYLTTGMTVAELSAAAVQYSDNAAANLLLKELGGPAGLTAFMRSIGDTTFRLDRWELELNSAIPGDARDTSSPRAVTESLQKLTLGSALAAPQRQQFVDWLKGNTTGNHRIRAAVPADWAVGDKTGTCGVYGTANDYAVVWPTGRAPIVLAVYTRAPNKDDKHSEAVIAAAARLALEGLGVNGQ
Method: as §1, §2
AC = Amplification coefficient. In the AC column, between brackets reports the regioisomeric ratio observed (1,4- vs. 1,5-) and bold reports the synthesised regioisomer. Light blue indicates the compounds obtained from the KPC-2 screening.

KPC-2 [3] = target: T2, KPC-2; conditions: KPC-2 20 mol%; warhead 3 + alkyne cluster; 37 °C, 24 h
Method: Starting from the azido-functionalised boronic acid 3, optimised conditions (see SI Table S2) were applied in combination with the 90-component alkyne library. The reactions were conducted in 0.2 mL microtubes in a 95:5 sodium phosphate 50 mM pH 7.0:DMSO mixture (final volume 100 µL), stirring at 300 rpm at 37 °C for 24 h (Scheme 1).
The experiments were conducted in triplicate, using a reaction mixture containing one equivalent of warhead 3, five equivalents of each alkyne cluster (9 alkynes), and 20 mol% KPC-2 as the catalyst. Product formation was monitored directly from the crude mixture using a hybrid quadrupole orbitrap LC–MS system in the ESI+ or ESI- mode after 24 h. Peak areas of the desired products were compared across three conditions: with KPC-2, without any enzyme, and with bovine serum albumin (BSA). […] The resulting ratio, named as the amplification coefficient (AC), was calculated from the peak area of the product obtained in the presence of KPC-2 vs. the one acquired with the controls.
(§3) Binary and multicomponent KTGS. […] The microtube was shaken at 300 rpm at 37 °C for 24 h. Reactions were transferred into a LC–MS vial and directly injected (10 µL) for liquid chromatography–mass spectrometry (LC–MS). Reactions were analysed with an Ultimate 3000 UHPLC coupled to a Q-exactive hybrid quadrupole-orbitrap mass spectrometer via an HESI-II heated electrospray ionisation source. The chromatographic separation was performed injecting a 10 µL sample volume on a Hypersil Gold C18 100 × 2.1 mm, 1.9 µm column (Thermo Fisher Scientific), kept at 30 °C eluting with 0.3 mL/min flow of ultrapure water (A) and methanol (B), both with 0.1% formic acid as mobile phase. […] A data-dependent mass spectrometric data acquisition strategy was used for full MS/DD-MS2. […] An inclusion list was eventually used to target the MS2 spectra acquisition of preferred ion species. Detection was based on calculated [M+H]^+ and [M−H]^− molecular ions with a 5 ppm accuracy tolerance for their respective ion chromatogram extraction. Peak retention time and area of detected target compounds was used for their detection and semi-quantitative evaluation in between reaction batches.
(§4) For controls (buffer and BSA), AmpC/KPC-2 is replaced with no enzyme (buffer volume 95 µL) and BSA (stock 100 µM, final concentration 5 µM, buffer volume 90 µL). Hits were identified in each cluster by mass and retention time and compared with both controls (buffer and BSA) and synthetically prepared triazoles obtained in mixtures.

AmpC [4] = target: T1, AmpC; parameters: made in house; conditions: AmpC 20 mol%; warhead 3 + alkyne cluster; 37 °C, 24 h
Method: Following the same conditions used for the multicomponent screening with KPC-2, the in situ click chemistry experiment was performed using AmpC as template.
as §3, §4

[5] = system: O=C(Cc1cccs1)N[C@@H]1C(=O)N2C(C(=O)O)=C(/C=C/c3ccc([N+](=O)[O-])cc3[N+](=O)[O-])CS[C@H]12; assay: purified protein, by the assay type

T1 sequence (P00811 20-377): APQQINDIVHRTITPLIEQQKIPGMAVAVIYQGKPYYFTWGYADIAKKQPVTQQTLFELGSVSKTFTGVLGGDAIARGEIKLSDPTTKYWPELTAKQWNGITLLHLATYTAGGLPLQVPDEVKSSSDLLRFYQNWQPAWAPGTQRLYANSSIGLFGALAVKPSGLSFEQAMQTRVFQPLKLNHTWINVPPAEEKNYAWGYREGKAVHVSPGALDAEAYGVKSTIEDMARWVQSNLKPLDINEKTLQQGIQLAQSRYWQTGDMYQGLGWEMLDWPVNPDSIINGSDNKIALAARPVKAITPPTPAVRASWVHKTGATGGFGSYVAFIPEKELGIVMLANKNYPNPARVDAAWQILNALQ

Row | Compound | Ki (AmpC [1]; AmpC, values in nM) | Ki (KPC-2 [2]) | AC (amplification coefficient) (KPC-2 [3]) | also measured
1 | COC(=O)c1cccc(CS(=O)(=O)NCc2cnnn2Cc2cccc(B(O)O)c2)c1 [7a] | 170 nM | 4600 nM | – | –
2 | C#CCOc1cccc(C(N)=O)c1 [Al-32] | – | – | exceeding three | –
3 | C#CCS(=O)(=O)c1ccccc1 [Al-39] | – | – | exceeding three | –
4 | C#CCNS(=O)(=O)Cc1cccc(C(=O)OC)c1 [Al-57] | – | – | exceeding three | –
5 | C#CCNC(=O)c1ccc(C(=O)OC)cc1 [Al-88] | – | – | – | AC (amplification coefficient) (AmpC [4]): 3-4
6 | NC(=O)c1cccc(OCc2cn(Cc3cccc(B(O)O)c3)nn2)c1 [compound 5] | – | – | 3-4 | Ki (KPC-2 [2]; KPC-2, values in nM): 730 nM; improvement compared with the warhead activity (KPC-2 [2]): 3 fold
7 | O=S(=O)(Cc1cn(Cc2cccc(B(O)O)c2)nn1)c1ccccc1 [compound 6] | – | 800 nM | 3-4 | improvement compared with the warhead activity (KPC-2 [2]): 3 fold
8 | COC(=O)c1cccc(CS(=O)(=O)NCc2cn(Cc3cccc(B(O)O)c3)nn2)c1 [compound 7] | 300 nM | 1700 nM | 5-6 | AC (amplification coefficient) (AmpC [4]): 4-5
9 | CCCCC(=O)NCc1cn(Cc2cccc(B(O)O)c2)nn1 [compound 8] | – | 7600 ± 400 nM | – | Ki (AmpC [1]): 1500 nM
10 | CC(C)CC(O)c1cn(Cc2cccc(B(O)O)c2)nn1 (stereo not drawn) [compound 9] | – | 5600 ± 300 nM | – | Ki (AmpC [1]): 11000 nM
11 | O=S(=O)(NCc1cn(Cc2cccc(B(O)O)c2)nn1)C1CCCCC1 [compound 10] | 600 nM | 670 ± 100 nM | – | –
12 | CN(C)c1ccc(-c2cn(Cc3cccc(B(O)O)c3)nn2)cc1 [compound 11] | 280 nM | 460 nM | – | –
13 | COC(=O)c1ccc(C(=O)NCc2cn(Cc3cccc(B(O)O)c3)nn2)cc1 [compound 12] | 400 nM | – | – | AC (amplification coefficient) (AmpC [4]): 3-4
14 | O=C(CCC1CCCCC1)NCc1cn(Cc2cccc(B(O)O)c2)nn1 [compound 13] | 800 nM | – | – | –
15 | CMY-2 (Klebsiella pneumoniae) | – | – | – | Km ([5]; other: CMY-2, NaPi 50 mM pH 7.0): 8 ± 1 µM µM
16 | CTX-M-15 (Escherichia coli) | – | – | – | Km ([5]; other: CTX-M-15, NaPi 50 mM pH 7.0): 35 ± 1 µM µM
17 | OXA-24 (Acinetobacter baumannii) | – | – | – | Km ([5]; other: OXA-24, NaPi 50 mM pH 7.0): 29 ± 1 µM µM
